Results on three compounds are retold here after patent US8686049B2, “Agent for increasing testosterone level” (Tohoku University, priority 2006, dated 2014).

For one data set, the system named is P450scc. Briefly: P450scc protein level in testis by Western blot, Example 1. In kind it is in vivo. To be noted: rat testis, diet with MK-4 75 mg/kg for 35 days, vs control dietary group (FIG. 3). The method, then:
(§1) In the breeding method, preparatory breeding was performed in which the rats have free access to feed and water for three to five days. A commercially-available solid feed (product name: MR Labostock by Nosan Corp.) was used. Each experimental diet group includes four rats that were colony-bred in a wire mesh cage. After the preparatory breeding, the rats were fed respective experimental diets and bred for 35 days with free access to feed and water. Blood samples were taken, and testes were removed.
Testes of each of the above-described group that had been stored at −80° C. after dissection were used. Anti-P450scc antibodies were purchased from Chemicon International, Inc.
While being iced in 1 ml of 1× Phosphate buffered saline (PBS, including 10 μl of 100 mM phenyl methane sulfonyl fluoride [PMSF]), 0.2 g of testes were homogenized in the Polytron homogenizer (Biotron). […] A portion of the tissue homogenate was used to determine the quantity of protein. […]
One milliliter of ECLTM Western blotting detection reagent (Amersham Corp.) was poured over the entire membrane. […] Luminescent signals were picked up by an Las-1000 Imaging System (Fujifilm Corp.) and quantity was determined using ImageGauge (trademark) image processing software.
Protein concentration in the tissue homogenates was measured by the Bradford method. […]

Data set [1] is described as follows: Testis vitamin K analog concentration by HPLC-reduction fluorescence, Example 1 (35-day diet). In kind it is in vivo, rat. The settings on record: rats, diet with MK-4 75 mg/kg for 35 days, vs low K and control dietary groups (FIG. 1). The method, then:
Experimental animals: ordinary rats (Wistar/Std, eight-week-old males)
as §1
One gram of tissue was precisely measured and placed in a stoppered brown centrifuge tube. Two milliliters of 66% IPA solution was added. The sample was then homogenized in a Polytron homogenizer (Biotron) on ice. […]
The vitamin K homologues in the prepared HPLC sample are non-fluorescent, oxidized types. […] Quantities of the vitamin K groups were determined by an HPLC-reduction fluorescence method that measures fluorescence intensity of the sample. The vitamin K groups were determined as a relative value of MK-3 that was the internal standard.
In the method, the HPLC-reduction fluorescence method is used in which the non-fluorescent, oxidized type vitamin K groups become fluorescent, reduced types through use of the platinum catalyst column. The fluorescence intensity of the vitamin K groups was measured. […]

Data set [2] can be described thus: Testis vitamin K concentration, Example 2. In kind it is in vivo, rat. The settings on record: rats, 75 mg/kg in diet, 35 days (FIG. 7), P<0.05. The method, then: (§2) As in Example 1, the experimental animals and breeding conditions were ordinary rats (Wistar/Std, eight-week-old males) bred in a breeding room set to a temperature of 23° C., humidity of 50±5%, and a 12-hour light/dark cycle in which lights were turned on at 8 AM and turned off at 8 PM.
(§3) The breeding period was 35 days. Blood was drawn from tail veins every week at 18 o'clock. Measurements of weight, diet intake, testis vitamin K content, testis testosterone concentration, and plasma testosterone concentration were taken. The analysis method was similar to that in Example 1.
Data on testis vitamin K concentration and testosterone concentration was analyzed using the Tukey method. Analysis of changes over time in the blood testosterone concentrations was performed by two-way layout analysis of variance (repeated). In all cases, significant differences was P<0.05.

Data set [3] can be described thus: Weight and diet intake of rats on experimental diets, Example 2. The settings on record: 75 mg/kg in diet, 35 days; for differences in weight: vs control dietary group (FIG. 5); for differences in diet intake: vs control dietary group (FIG. 6). In kind it is in vivo, rat. As for the experimental part:
as §2, §3

For data set [4] the following is noted: person per day; cited from earlier work.

Regarding `CC(C)=CCC/C(C)=C/CC/C(C)=C/CC/C(C)=C/CC1=C(C)C(=O)c2ccccc2C1=O` [MK-4, menaquinone-4], in the data set with P450scc, the P450scc protein level result is on record as “significantly higher”. For the same compound, in data set [1], the “MK-4 concentration in the testes” value was “significantly high”. Also, the “testis MK-4 concentration” value in data set [2] was “significantly increased”. In data set [3], the differences in weight result was “could not be observed” and the “differences in diet intake” value is reported as “could not be observed”.

Take `CC1=C(C/C=C(\C)CCC[C@H](C)CCC[C@H](C)CCCC(C)C)C(=O)c2ccccc2C1=O` [vitamin K1, phylloquinone]: the “testis MK-4 concentration” value in data set [2] was “significantly increased”. For the same compound, in data set [3], the differences in weight entry is “could not be observed” and the “differences in diet intake” value is given as “could not be observed”.

For the compound Vitamin K, the “tolerable upper intake level” value in data set [4] was 30 mg.
